# Test: Inhibition of CRM1 in human HCT-15 cells assessed as reduction in cell viability incubated for 24 hrs
smiles,measurement,value
[O-][S@@+](/C=C/CCN=C=S)c1cc(C(F)(F)F)cc(C(F)(F)F)c1,IC50,151 nM

# — BindingDB's records for doi:10.1021/acs.jmedchem.9b01663 (Dalian University of Technology, 2020)
